Assay results taken from patent publication US4642332A, “Effective hormonal peptides: D-3-Pal^6 -LHRH” (The Board of Regents, The University of Texas System, priority 1985, dated 1987).

What was measured:
[1] = test system: 21 day old female rats; test: In vivo assay in rats for release of LH and FSH; design: species or system rat; conditions: for +2 hrs LH ± SEM ng/ml serum / FSH ± SEM ng/ml serum (+2 hrs) / +3 hrs LH ± SEM ng/ml serum / FSH ± SEM ng/ml serum (+3 hrs): Table XI, mean 5-6; for Serum FSH ng/ml SEM / Serum LH ng/ml SEM: Table IX, blood sample at ±60 minutes; for Serum FSH ng/ml SEM / Serum LH ng/ml SEM / FSH ng/ml Serum ± SEM at +120 min / LH ng/ml Serum ± SEM at +120 min: mean of 6; for FSH ng/ml Serum ± SEM at +120 min / LH ng/ml Serum ± SEM at +120 min: Table X
Description: In vivo rat assay performed by a modification of the method of Bowers, C. Y. et al. Endocrinology, 106, 674 (1980). 21 day old female rats were injected sc with saline or peptide. Blood samples for the RIAs of LH and FSH were collected at +15, +60, +120, or +180 minutes. (Tables VI-XI).

[2] = test system: pituitary cells from 21 day old rats; test: In vitro pituitary incubate assay (release of LH and FSH); format: cell-based, rat; conditions: for FSH ng/ml medium ± SEM / LH ng/ml medium ± SEM / FSH released into medium (ng/ml) ± SEM: mean of 9
Description: The data in Tables IV and V are from the in vitro assay of the peptides with the pituitary incubate. This assay measures the release of LH and FSH in an in vitro system with pituitary cells from 21 day old rats. See, Bowers, C. Y. et al. on the inhibitory effects of leutinizing hormone releasing hormone analogs. Endocrinology, 106: 674 (1980).
The abbreviations are as follows: sc-subcutaneous, SEM-standard error of the mean; NS-not significant; ng-nanogram, and ml-milliliter. The p value represents the population coefficient .rho.(rho) which signifies whether a sample coefficient is significant or a chance deviation from zero.

[3] = test system: advanced prostatic carcinoma; design: clinical effect in patients with urinary obstruction: dose or concentration left out as unconfirmed; conditions: subcutaneously, cited from earlier work
[4] = test system: men; conditions: in men, after chronic administration; cited from earlier work
[5] = Table V, dosage .01 ng/ml medium
[6] = Table V, dosage .03 ng/ml medium
[7] = Table V, dosage .10 ng/ml medium
[8] = Table VI, 1.75 ng/rat sc, mean of 9
[9] = Table VI, 5 ng/rat sc, mean of 9
[10] = Table VI, 15 ng/rat sc, mean of 9
[11] = Table VI, 50 ng/rat sc, mean of 9
[12] = Table VIII first section (time not given), 15 ng/rat sc, mean of 5-6
[13] = Table VIII first section (time not given), 150 ng/rat sc, mean of 5-6
[14] = Table VIII, ±60 min after injection, 15 ng/rat sc, mean of 5-6
[15] = Table VIII, ±60 min after injection, 150 ng/rat sc, mean of 5-6
[16] = Table IV, dosage 0.03 ng/ml medium
[17] = Table IV, dosage 0.1 ng/ml medium
[18] = Table IV, dosage 0.3 ng/ml medium
[19] = Table IV, dosage 1.0 ng/ml medium
[20] = at 0.1 ng, statement on Table IV

SMILES: CC(C)C[C@H](NC(=O)[C@@H](Cc1c[nH]c2ccccc12)NC(=O)[C@H](Cc1ccc(O)cc1)NC(=O)[C@H](CO)NC(=O)[C@H](Cc1c[nH]c2ccccc12)NC(=O)[C@H](Cc1c[nH]cn1)NC(=O)[C@@H]1CCC(=O)N1)C(=O)N[C@@H](CCCNC(=N)N)C(=O)N1CCC[C@H]1C(=O)NCC(N)=O [D-Trp^6 -LHRH, pyroGlu--His--Trp--Ser--Tyr--D-Trp--Leu--Arg--Pro--Gly--NH2]
- LH ng/ml Serum ± SEM ± 60 min ([1]; Table VII, dosage 10 mg/rat sc (so in the source)): 31 ± 6 ng/mL
- LH ng/ml Serum ± SEM ± 15 min ([1]; Table VII, dosage 100 mg/rat sc (so in the source), ± 15 min): 51 ± 10 ng/mL
- LH ng/ml Serum ± SEM ± 60 min ([1]; Table VII, dosage 100 mg/rat sc (so in the source)): 259 ± 34 ng/mL
- +2 hrs LH ± SEM ng/ml serum ([1]; 150 ng sc): 230 ± 41 ng/mL
- FSH ± SEM ng/ml serum (+2 hrs) ([1]; 150 ng sc): 2332 ± 388 ng/mL
- +3 hrs LH ± SEM ng/ml serum ([1]; 150 ng sc): 117 ± 9 ng/mL
- FSH ± SEM ng/ml serum (+3 hrs) ([1]; 150 ng sc): 2065 ± 151 ng/mL
- FSH ng/ml medium ± SEM [2, 5]: 450 ± 64 ng/mL
- LH ng/ml medium ± SEM [2, 5]: 68 ± 31 ng/mL
- FSH ng/ml medium ± SEM [2, 6]: 929 ± 207 ng/mL
- LH ng/ml medium ± SEM [2, 6]: 209 ± 74 ng/mL
- FSH ng/ml medium ± SEM [2, 7]: 1714 ± 224 ng/mL
- LH ng/ml medium ± SEM [2, 7]: 646 ± 69 ng/mL
- potency, D-Qal^6 -LHRH compared with D-Trp^6 -LHRH ([2]; comparable assays, statement in words): essentially equipotent
- clinical effect in patients with urinary obstruction ([3]; daily doses (so in the source)): noticeable clinical improvement
- pain from bone metastases in patients with more advanced prostatic disease ([3]; daily doses of 100 g and 50 g, respectively (so in the source)): relieved
- Leydig cell function [4]: suppression of Leydig cell function
- serum levels of testosterone, dihydrotestosterone and estradiol [4]: decreases

SMILES: CC(C)C[C@H](NC(=O)[C@@H](Cc1cccnc1)NC(=O)[C@H](Cc1ccc(O)cc1)NC(=O)[C@H](CO)NC(=O)[C@H](Cc1c[nH]c2ccccc12)NC(=O)[C@H](Cc1c[nH]cn1)NC(=O)[C@@H]1CCC(=O)N1)C(=O)N[C@@H](CCCNC(=N)N)C(=O)N1CCC[C@H]1C(=O)NCC(N)=O [D-Pal^6 -LHRH, pyroGlu-His-Trp-Ser-Tyr-D-3-Pal-Leu-Arg-Pro-GlyNH2]
- Serum FSH ng/ml SEM ([1]; 50 ng/rat sc): 3099 ± 361 ng/mL
- Serum LH ng/ml SEM ([1]; 50 ng/rat sc): 120 ± 16 ng/mL
- Serum FSH ng/ml SEM ([1]; 150 ng/rat sc): 3064 ± 677 ng/mL
- Serum LH ng/ml SEM ([1]; 150 ng/rat sc): 122 ± 19 ng/mL
- Serum FFSH ng/ml ± SEM [1, 8]: 471 ± 128 ng/mL
- Serum LH ng/ml ± SEM [1, 8]: 1.5 ± 0.3 ng/mL
- Serum FFSH ng/ml ± SEM [1, 9]: 738 ± 71 ng/mL
- Serum LH ng/ml ± SEM [1, 9]: 7 ± 1 ng/mL
- Serum FFSH ng/ml ± SEM [1, 10]: 1270 ± 140 ng/mL
- Serum LH ng/ml ± SEM [1, 10]: 43 ± 7 ng/mL
- Serum FFSH ng/ml ± SEM [1, 11]: 2267 ± 342 ng/mL
- Serum LH ng/ml ± SEM [1, 11]: 103 ± 8 ng/mL
- Serum FSH ng/ml ± SEM [1, 12]: 1711 ± 644 ng/mL
- Serum LH ng/ml ± SEM [1, 12]: 36 ± 9 ng/mL
- Serum FSH ng/ml ± SEM [1, 13]: 1591 ± 588 ng/mL
- Serum LH ng/ml ± SEM [1, 13]: 111 ± 16 ng/mL
- Serum FSH ng/ml ± SEM [1, 14]: 1992 ± 379 ng/mL
- Serum LH ng/ml ± SEM [1, 14]: 81.0 ± 17 ng/mL
- Serum FSH ng/ml ± SEM [1, 15]: 6432 ± 2216 ng/mL
- Serum LH ng/ml ± SEM [1, 15]: 106.0 ± 3 ng/mL
- FSH ng/ml Serum ± SEM at +120 min ([1]; 50 ng/rat sc): 3251 ± 485 ng/mL
- LH ng/ml Serum ± SEM at +120 min ([1]; 50 ng/rat sc): 111 ± 26 ng/mL
- FSH ng/ml Serum ± SEM at +120 min ([1]; 150 ng/rat sc): 5293 ± 686 ng/mL
- LH ng/ml Serum ± SEM at +120 min ([1]; 150 ng/rat sc): 216 ± 46 ng/mL
- +2 hrs LH ± SEM ng/ml serum ([1]; 50 ng sc): 108 ± 17 ng/mL
- FSH ± SEM ng/ml serum (+2 hrs) ([1]; 50 ng sc): 1727 ± 222 ng/mL
- +3 hrs LH ± SEM ng/ml serum ([1]; 50 ng sc): 20 ± 2.3 ng/mL
- FSH ± SEM ng/ml serum (+3 hrs) ([1]; 50 ng sc): 1312 ± 163 ng/mL
- +2 hrs LH ± SEM ng/ml serum ([1]; 150 ng sc): 144 ± 27 ng/mL
- FSH ± SEM ng/ml serum (+2 hrs) ([1]; 150 ng sc): 2362 ± 293 ng/mL
- +3 hrs LH ± SEM ng/ml serum ([1]; 150 ng sc): 38 ± 6.3 ng/mL
- FSH ± SEM ng/ml serum (+3 hrs) ([1]; 150 ng sc): 1617 ± 143 ng/mL
- release of LH (in words) ([1]; dosage of 5 ng): significantly released LH
- FSH released ([1]; dosage of 15 ng): 1270 ± 140 ng
- LH released relative to LHRH ([1]; dosage of 50 ng, corrected for the level of LH before addition of the peptides): ~50 times
- potency compared with LHRH when tested biologically ([1]; summary statement, test not specified): significantly more potent than LHRH itself
- FSH released into medium (ng/ml) ± SEM [2, 16]: 1062 ± 394
- LH ng/ml medium ± SEM [2, 16]: 73 ± 10 ng/mL
- FSH released into medium (ng/ml) ± SEM [2, 17]: 3109 ± 486
- LH ng/ml medium ± SEM [2, 17]: 345 ± 72 ng/mL
- FSH released into medium (ng/ml) ± SEM [2, 18]: 5126 ± 967
- LH ng/ml medium ± SEM [2, 18]: 811 ± 182 ng/mL
- FSH released into medium (ng/ml) ± SEM [2, 19]: 9637 ± 1490
- LH ng/ml medium ± SEM [2, 19]: 1439 ± 233 ng/mL
- activity for the release of LH, D-Pal^6 -LHRH compared with D-Qal^6 -LHRH [2, 20]: essentially equivalent
- release of FSH, D-Pal^6 -LHRH compared with D-Qal^6 -LHRH [2, 20]: same essential equivalents
- potency, D-Pal^6 -LHRH compared with D-Trp^6 -LHRH ([2]; inferred from equivalence with D-Qal^6 -LHRH): essentially equipotent
